Test results published in US20060014231A1, “Methods and compositions to promote bone homeostasis” (priority 2004, published 2006).

What was measured:
NR1H2 = target: T1, NR1H2 (Homo sapiens, UniProt P55055); experiment: Alkaline phosphatase (AP) assay in MPCs infected with Ad-NR1H2 and treated with ligand; format: cell-based; conditions: MPCs infected with Ad-NR1H2, increasing ligand concentrations, MUP readout after 7, 10 and 13 days
T1 construct: amplification of the complete open reading frame from ATG start codon to the stop codon of drugable genes; expressed in transfected cells; host or cells: primary human bone-marrow MPCs, adenoviral transduction (Ad5-NR1H2 with Ad-hCAR)
T1 sequence (P55055 1-460): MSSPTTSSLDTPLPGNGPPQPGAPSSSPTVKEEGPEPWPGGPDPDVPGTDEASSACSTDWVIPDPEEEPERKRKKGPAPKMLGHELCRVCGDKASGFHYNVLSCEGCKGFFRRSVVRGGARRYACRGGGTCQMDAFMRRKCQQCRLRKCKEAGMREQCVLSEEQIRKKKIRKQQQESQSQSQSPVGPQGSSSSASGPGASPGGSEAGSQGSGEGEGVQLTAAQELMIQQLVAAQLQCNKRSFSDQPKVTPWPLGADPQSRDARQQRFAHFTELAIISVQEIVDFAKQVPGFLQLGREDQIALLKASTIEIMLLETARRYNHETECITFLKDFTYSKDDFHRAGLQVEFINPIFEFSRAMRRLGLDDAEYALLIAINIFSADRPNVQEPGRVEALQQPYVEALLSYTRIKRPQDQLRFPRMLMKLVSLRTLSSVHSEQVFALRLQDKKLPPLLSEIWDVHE
Experimental: (§1) After 6 days, medium is removed and replaced with fresh medium containing the same concentrations of the compound T0901317. Readouts of AP activity are performed at several time points after the start of the experiment, typically after 7, 10 and 13 days. Up-regulation of alkaline phosphatase activity is read as follows: medium is removed from the monolayers, 15 μl MUP is added to each well, the plates are incubated for 15 min at 37° C. and then read for AP activity using a fluorescence plate reader (Fluostar, BMG).
as §1, with “MPCs are seeded on day 0 at 1000 cells per well of a 384 well plate and co-infected the next day using AdC51-hCAR (MOI 250) and different MOIs of Ad5-NR1H2 (MOI 2000, 666). On day 1, 9 concentrations (1.52E-9M, 4.57E-9M, 1.37E-8M, 4.12E-8M, 1.23E-7M, 3.7E-7M, 1.11E-6M, 3.33E-6M, 1E-5M) of the compound GW3965 with fixed vehicle concentration (DMSO at final concentration of 0.161%) are added to the wells. After” for “After”, “GW3965.” for “T0901317.”
as §1, with “APD.” for “T0901317.”

primary human MPCs = experiment: Mineralization assay (Alizarin RedS / Von Kossa stain); format: cell-based; conditions: MPCs with NR1H3 and ligand
Experimental: On day one, primary human MPCs are seeded in a 6 well plate (Costar or Nunc) at a density of 50,000 to 250,000 cells per well, typically at 100,000 cells per well. MPCs are co-infected one day later with AdC15-hCAR (MOI 750) and Ad-control (eGFP or BMP2) or hit-virus (Ad5) (at MOIs between 250 and 20,000, typically at MOIs 5000 and 2500). For Ad-GPCR or Ad-NHR experiments, cells can additionally be treated with specific ligands. These are added at the EC50 concentration and at concentrations 5-10 times higher and lower. Ligands are added 2-3 times per week. Medium supplemented with 100 μg/ml L-ascorbate and 10 mM beta-glycerophosphate, is refreshed 2 times a week. 20 to 30 days after the start of the experiment, cells are stained with Von Kossa stain or with Alizarin RedS stain.
The Alizarin RedS staining is carried out as follows: cells are washed once with PBS, fixed with 10% paraformaldehyde for 45 minutes at 4° C., and washed 2 times with PBS. Cells are incubated with 40 mM aqueous Alizarin RedS solution, pH 4.1-4.3 for 10 minutes followed by 5 washes with distilled water. Staining is evaluated and photographed using white light.

RUNX2 = experiment: DN-RUNX2 assay: interference with up-regulation of AP activity in MPCs; format: cell-based, human; conditions: Ad-NR1H3 + T0901317 plus Ad-DN-RUNX2 versus Ad-luciferase, 6 days post infection
Source text: Since the osteogenic activity of BMP2 is known to work through RUNX2, Ad-BMP2 and Ad-DN-RUNX2 viruses are used to develop the DN-RUNX2 assay. The human full-length RUNX2 cDNA is obtained by RT-PCR from total RNA extracted from MPCs. The 5′ part of the cDNA encoding amino acids 1-214 is obtained by PCR from the cloned RUNX2 cDNA and subcloned in an adenoviral adapter plasmid. The identity of the cloned fragment is verified by sequencing. This plasmid is used to generate an adenoviral stock, as described in WO 9964582.
MPCs are seeded at 1000 cells/well in a 384 well plate and infected the next day with adenoviruses encoding hCAR (MOI 250), Ad-BMP2 (MOIs 6000, 2000, 666) and one of Ad-DN-RUNX2 or Ad-luciferase (MOIs 2000 or 666). Alkaline phosphatase activity is read 6 days post infection.
The DN-RUNX2 assay is used to test the involvement of RUNX2 in the up-regulation of AP activity by NR5A2, NR1H3, and ESRRG. MPCs are seeded at 1000 cells/well in a 384 well plate and are infected the next day with adenoviruses encoding hCAR (MOI 250), Ad-BMP2, Ad-ESRRG, Ad-NR5A2, Ad-NR1H3 (MOIs 6000, 2000, 666) and one of Ad-DN-RUNX2 or Ad-luciferase (MOI 1000 or MOIs 2000 and 666) (see FIG. 19(C)). Alkaline phosphatase activity is read 6 days post infection and raw data are analysed.

up-regulation of alkaline phosphatase (AP) activity (NR1H2): dose-response relation
Compound: O=S(=O)(c1ccccc1)N(CC(F)(F)F)c1ccc(C(O)(C(F)(F)F)C(F)(F)F)cc1 [T0901317]
mineralization (primary human MPCs): score well | up-regulation of AP activity induced by NR1H3 in the presence of T0901317, under overexpression of DN-RUNX2 (RUNX2): significantly reduces
